In patent publication US12466849B2, “Anti-viral and anti-tumoral compounds” (YEDA RESEARCH AND DEVELOPMENT CO. LTD, priority 2020, dated 2025):
Values after ≈ are worked out from the molar mass of the structure shown. Where two headings read alike, the source gives them in different places.

Columns and labels:
Yellow fever virus (YFV) [1] = details: for SI: YFV, SI = CC50/EC50
SARS-CoV-2 [2] = details: SARS-CoV-2; SI = CC50/EC50
[3] = human
adenovirus-5 (Ad5) [4] = experiment: organism not typed; details: A549
TCRV [5] = experiment: microbe, parasite or virus in culture; details: Mammarenavirus tacaribeense, Vero C1008
Zika virus [6] = details: for SI: Zika, SI = CC50/EC50
in vitro [7] = details: African green monkey
in vitro [8] = details: African green monkey; remark: listed apart in the source
[9] = test system: Japanese encephalitis virus (JEV); experiment: microbe, parasite or virus in culture; details: Vero 76
West Nile virus (WNV) [10] = details: for SI: WNV, SI = CC50/EC50
adenovirus-5 (Ad5) [11] = details: for SI: Ad5, SI = CC50/EC50
dengue virus-2 (DV-2) [12] = details: DV-2; SI = CC50/EC50
[13] = test system: Rift Valley fever virus (RVFV); details: for SI: RVFV, SI = CC50/EC50
poliovirus-1 (POV-1) [14] = details: for SI: POV-1, SI = CC50/EC50; for CC50: Vero 76 cells without virus
in vitro [15] = details: African green monkey; remark: listed apart in the source
influenza A(H5N1) [16] = details: for SI: influenza A(H5N1), SI = CC50/EC50
in vitro [17] = details: African green monkey; remark: listed apart in the source
[18] = MRC-5 cytotoxicity assay (MTS) and visual cytotoxicity; details: human
influenza A(H1N1) [19] = details: for SI: H1N1
RSV [20] = details: for SI: RSV, SI = CC50/EC50
[21] = test system: Venezuelan equine encephalitis virus (VEEV); details: for SI: VEEV, SI = CC50/EC50
Influenza B [22] = experiment: microbe, parasite or virus in culture; details: MDCK
influenza A(H5N1) [23] = experiment: microbe, parasite or virus in culture; details: H5N1, MDCK
in vitro [24] = details: dog
enterovirus-68 (EV-68) [25] = experiment: organism not typed; details: RD
in vitro [26] = details: African green monkey; remark: listed apart in the source
in vitro [27] = details: dog; remark: listed apart in the source
West Nile virus (WNV) [28] = experiment: microbe, parasite or virus in culture; details: Vero 76
Powassan virus (POWV) [29] = experiment: microbe, parasite or virus in culture; details: BHK-21
[30] = test system: Venezuelan equine encephalitis virus (VEEV); experiment: microbe, parasite or virus in culture; details: Vero 76
[31] = test system: Rift Valley fever virus (RVFV); experiment: microbe, parasite or virus in culture; details: Vero 76
poliovirus-1 (POV-1) [32] = experiment: organism not typed
in vitro [33] = details: African green monkey; remark: listed apart in the source
SARS-CoV [34] = experiment: microbe, parasite or virus in culture; details: Severe acute respiratory syndrome coronavirus, Vero 76
Yellow fever virus (YFV) [35] = experiment: microbe, parasite or virus in culture; details: Huh-7
RSV [36] = experiment: microbe, parasite or virus in culture; details: human respiratory syncytial virus, MA104
in vitro [37] = details: African green monkey; remark: listed apart in the source
Influenza B [38] = test system: Influenza B
Powassan virus (POWV) [39] = details: POWV; SI = CC50/EC50
in vitro [40] = details: African green monkey; remark: listed apart in the source
HCMV AD169 = experiment: HCMV plaque reduction assay, MRC-5 cells, strain AD169; type: cell-based, Human cytomegalovirus; details: Human betaherpesvirus 5, 144 h; hCMV AD169, MRC5 cells, plaque assay, 6-days duration
TCRV [41] = details: for SI: TCRV, SI = CC50/EC50
Zika virus [42] = experiment: microbe, parasite or virus in culture; details: Vero 76
dengue virus-2 (DV-2) [43] = experiment: microbe, parasite or virus in culture; details: Huh-7
influenza A(H1N1) [44] = experiment: microbe, parasite or virus in culture; details: H1N1, MDCK
enterovirus-68 (EV-68) [45] = details: for SI: EV-68, SI = CC50/EC50
[46] = test system: Japanese encephalitis virus (JEV); details: for SI: JEV, SI = CC50/EC50
in vitro [47] = details: dog; remark: listed apart in the source
in vitro [48] = details: Syrian hamster
in vitro [49] = details: African green monkey; remark: listed apart in the source
[50] = rat, 1 µM
SARS-CoV [51] = details: for SI: SARS-CoV, SI = CC50/EC50
SARS-CoV-2 [52] = experiment: microbe, parasite or virus in culture; details: Severe acute respiratory syndrome coronavirus 2, Vero 76
[53] = test system: enterovirus-68 (EV-68, US/DY/14-18953); experiment: organism not typed; details: RD
[54] = test system: enterovirus-68 (EV-68, US/DY/14-18953); details: EV-68; SI = CC50/EC50
in vitro [55] = details: human
in vitro [56] = details: human; remark: listed apart in the source
[57] = Vero 76 cells without virus, test compounds

Nc1nc2c(ncn2[C@@H]2OC(CO)=CC2O)c(=O)[nH]1 (some centres unmarked) [AB21651]
SI (Yellow fever virus (YFV) [1]): 0
SI (SARS-CoV-2 [2]): 0
Peak area ratio, metabolite formed (AB21649 from AB23039, AB21651 from AB23040) ([3]; 0 min, 1 µM): 6.17E−04
Peak area ratio, metabolite formed (AB21649 from AB23039, AB21651 from AB23040) ([3]; 0 min, 1 μM): 7.04E−04
Peak area ratio, metabolite formed (AB21649 from AB23039, AB21651 from AB23040) ([3]; 15 min, 1 μM): 1.03E−03
Peak area ratio, metabolite formed (AB21649 from AB23039, AB21651 from AB23040) ([3]; 60 min, 1 μM): 1.50E−03
EC50 (adenovirus-5 (Ad5) [4]): > 2000 µM
EC50 (TCRV [5]): > 2000 µM
SI (Zika virus [6]): 0
CC50 (in vitro [7]): > 2000 µM
CC50 (in vitro [8]): > 2000 µM
EC50 [9]: > 2000 µM
SI (West Nile virus (WNV) [10]): 0
SI (adenovirus-5 (Ad5) [11]): 0
SI (dengue virus-2 (DV-2) [12]): 0
SI [13]: 0
SI (poliovirus-1 (POV-1) [14]): 0
CC50 (in vitro [15]): > 2000 µM
antiviral activity against Influenza (H5N1) (in words) (influenza A(H5N1) [16]; Table 11): exhibits antiviral activity
SI (influenza A(H5N1) [16]): >1.5
CC50 (in vitro [17]): > 2000 µM
CC50 at 6 days [18]: > 100 µM
antiviral activity against Influenza (H1N1) (in words) (influenza A(H1N1) [19]): exhibits antiviral activity
SI (influenza A(H1N1) [19]): >4.5
SI (RSV [20]): 0
SI [21]: 0
EC50 (Influenza B [22]): > 2000 µM
EC50 (influenza A(H5N1) [23]): 1300 µM
CC50 (in vitro [24]): > 2000 µM
EC50 (enterovirus-68 (EV-68) [25]): > 1100 µM
CC50 (in vitro [26]): > 2000 µM
CC50 (in vitro [27]): > 2000 µM
EC50 (West Nile virus (WNV) [28]): > 2000 µM
EC50 (Powassan virus (POWV) [29]): > 2000 µM
EC50 [30]: > 2000 µM
EC50 [31]: > 2000 µM
EC50 (poliovirus-1 (POV-1) [32]; Vero 76): > 2000 µM
CC50 (in vitro [33]): > 2000 µM
EC50 (SARS-CoV [34]): > 2000 µM
EC50 (Yellow fever virus (YFV) [35]): > 2000 µM
EC50 (RSV [36]): > 2000 µM
CC50 (in vitro [37]): > 2000 µM
SI (Influenza B [38]): 0
SI (Powassan virus (POWV) [39]): 0
CC50 (in vitro [40]): > 2000 µM
EC50 (HCMV AD169): > 100 µM
SI (TCRV [41]): 0
EC50 (Zika virus [42]): > 2000 µM
EC50 (dengue virus-2 (DV-2) [43]): > 2000 µM
EC50 (influenza A(H1N1) [44]): 440 µM
SI (enterovirus-68 (EV-68) [45]): 0
SI [46]: 0
CC50 (in vitro [47]): > 2000 µM
CC50 (in vitro [48]): > 2000 µM
CC50 (in vitro [49]): > 2000 µM
Peak area ratio, metabolite formed (AB21649 from AB23039, AB21651 from AB23040) ([50]; 15 min): 6.93E−04
Peak area ratio, metabolite formed (AB21649 from AB23039, AB21651 from AB23040) ([50]; 60 min): 7.68E−04
SI (SARS-CoV [51]): 0
EC50 (SARS-CoV-2 [52]): > 2000 µM

CC(C)S(=O)(=O)n1c(N)nc2ccc(/C(=N/O)c3ccccc3)cc21 [Enviroxime]
EC50 [53]: 0.12 mg/L (≈ 0.335 µM)
SI50 (SI) [54]: 46
SI (poliovirus-1 (POV-1) [14]): 350
CC50 (poliovirus-1 (POV-1) [14]; positive control): 3.3 mg/L
EC50 (poliovirus-1 (POV-1) [32]; Vero 76, read-out: EQ50): 0.0095 mg/L
CC50 (in vitro [55]): 5.5 mg/L (≈ 15.3 µM)

Nc1ccn([C@@H]2OC(CO)=C[C@H]2O)c(=O)n1 [AB21650, 3′-deoxy-3′,4′-didehydro cytidine]
CC50 (Yellow fever virus (YFV) [1]; Huh7 cells without virus, test compounds): > 2000 µM
SI (Yellow fever virus (YFV) [1]): 0
SI (SARS-CoV-2 [2]): 0
EC50 (adenovirus-5 (Ad5) [4]): > 2000 µM
EC50 (TCRV [5]): > 2000 µM
CC50 (Zika virus [6]; African green monkey): > 2000 µM
SI (Zika virus [6]): 0
EC50 [9]: > 2000 µM
CC50 (West Nile virus (WNV) [10]; African green monkey): > 2000 µM
SI (West Nile virus (WNV) [10]): 0
SI (adenovirus-5 (Ad5) [11]): 0
CC50 (adenovirus-5 (Ad5) [11]; human): > 2000 µM
SI (dengue virus-2 (DV-2) [12]): 0
SI [13]: 0
CC50 [13, 57]: > 2000 µM
SI (poliovirus-1 (POV-1) [14]): 0
CC50 (poliovirus-1 (POV-1) [14]; test compounds): > 2000 µM
CC50 (influenza A(H5N1) [16]; MDCK cells without virus, test compounds): > 2000 µM
SI (influenza A(H5N1) [16]): 0
CC50 (in vitro [17]): > 2000 µM
SI (influenza A(H1N1) [19]): 0
CC50 (influenza A(H1N1) [19]; dog): > 2000 µM
CC50 (RSV [20]; African green monkey): > 2000 µM
SI (RSV [20]): 0
SI [21]: 0
CC50 [21, 57]: > 2000 µM
EC50 (Influenza B [22]): > 2000 µM
EC50 (influenza A(H5N1) [23]): > 2000 µM
EC50 (enterovirus-68 (EV-68) [25]): 910 µM
EC50 (West Nile virus (WNV) [28]): > 2000 µM
EC50 (Powassan virus (POWV) [29]): > 2000 µM
EC50 [30]: > 2000 µM
EC50 [31]: > 2000 µM
EC50 (poliovirus-1 (POV-1) [32]; Vero 76): > 2000 µM
EC50 (SARS-CoV [34]): > 2000 µM
EC50 (Yellow fever virus (YFV) [35]): > 2000 µM
EC50 (RSV [36]): > 2000 µM
SI (Influenza B [38]): 0
CC50 (Influenza B [38]; dog): > 2000 µM
SI (Powassan virus (POWV) [39]): 0
CC50 (TCRV [41]; African green monkey): > 2000 µM
SI (TCRV [41]): 0
EC50 (Zika virus [42]): > 2000 µM
EC50 (dengue virus-2 (DV-2) [43]): > 2000 µM
EC50 (influenza A(H1N1) [44]): > 2000 µM
SI (enterovirus-68 (EV-68) [45]): 2
CC50 (enterovirus-68 (EV-68) [45]; human): 1800 µM
CC50 ([46]; African green monkey): > 2000 µM
SI [46]: 0
CC50 (in vitro [48]): > 2000 µM
CC50 (in vitro [56]): > 2000 µM
SI (SARS-CoV [51]): 0
CC50 (SARS-CoV [51]; [57]): > 2000 µM
EC50 (SARS-CoV-2 [52]): > 2000 µM
